Among the data in ChEMBL document CHEMBL5214931, “Recent advances in combretastatin A-4 codrugs for cancer therapy” (Eur J Med Chem, 2022) are IC50, inhibition in vivo and Activity values, retold here.

One test relates to MCF7. Description: Cytotoxicity against human MCF7 cells assessed as cell growth inhibition by MTT assay. It is filed as functional, cell-based.
For the next test, the target named is Estrogen receptor beta (Homo sapiens, UniProt Q92731). In words: Inhibition of human recombinant ERbeta expressed in baculovirus expression system measured after 20 mins by fluorescent polarisation Assay.
Estrogen receptor beta, sequence (Q92731 whole entry): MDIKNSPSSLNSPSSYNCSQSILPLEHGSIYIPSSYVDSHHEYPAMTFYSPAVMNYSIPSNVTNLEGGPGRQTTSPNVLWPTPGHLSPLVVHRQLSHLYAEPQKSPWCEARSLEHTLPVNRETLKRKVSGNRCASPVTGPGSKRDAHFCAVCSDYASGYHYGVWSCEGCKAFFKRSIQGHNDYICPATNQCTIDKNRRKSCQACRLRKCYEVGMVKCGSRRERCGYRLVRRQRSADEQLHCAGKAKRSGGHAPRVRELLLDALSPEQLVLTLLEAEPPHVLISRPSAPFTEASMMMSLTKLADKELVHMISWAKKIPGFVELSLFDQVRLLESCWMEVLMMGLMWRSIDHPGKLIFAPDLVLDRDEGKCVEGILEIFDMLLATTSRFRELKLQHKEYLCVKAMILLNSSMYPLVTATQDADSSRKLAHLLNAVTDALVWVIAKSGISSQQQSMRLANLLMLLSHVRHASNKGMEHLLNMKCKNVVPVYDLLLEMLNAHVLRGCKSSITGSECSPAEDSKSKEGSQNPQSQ
For a further test, the target named is T1, Estrogen receptor (Homo sapiens, UniProt P03372).
T1 sequence (P03372 whole entry): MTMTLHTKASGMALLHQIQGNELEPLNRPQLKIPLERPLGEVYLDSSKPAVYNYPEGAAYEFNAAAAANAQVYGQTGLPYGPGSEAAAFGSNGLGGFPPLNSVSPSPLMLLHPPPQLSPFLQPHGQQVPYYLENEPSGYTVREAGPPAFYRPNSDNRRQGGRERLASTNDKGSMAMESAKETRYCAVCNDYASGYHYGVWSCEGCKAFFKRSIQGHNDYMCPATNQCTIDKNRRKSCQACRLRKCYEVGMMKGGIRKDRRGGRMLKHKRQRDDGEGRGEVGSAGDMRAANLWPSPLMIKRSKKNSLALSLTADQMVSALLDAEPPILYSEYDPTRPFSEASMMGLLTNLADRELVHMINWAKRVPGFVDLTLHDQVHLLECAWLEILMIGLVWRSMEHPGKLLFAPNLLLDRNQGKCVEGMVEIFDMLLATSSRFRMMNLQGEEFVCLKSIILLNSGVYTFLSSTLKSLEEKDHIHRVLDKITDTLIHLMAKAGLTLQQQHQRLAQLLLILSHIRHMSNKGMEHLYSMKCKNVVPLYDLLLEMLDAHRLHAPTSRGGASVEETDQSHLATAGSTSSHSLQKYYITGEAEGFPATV
In words: Inhibition of human recombinant ERalpha expressed in baculovirus expression system measured after 20 mins by fluorescent polarisation Assay.

The subject of test [1] is A549. Description: Cytotoxicity against human A549 cells assessed as cell growth inhibition measured after 48 hrs by MTT assay. The test is classed as functional, cell-based. To be noted: A549, 48 h.
In test [2] the test system is HepG2. Description: Cytotoxicity against human HepG2 cells assessed as cell growth inhibition measured after 48 hrs by MTT assay. The following applies: HepG2, 48 h. The test is classed as functional, cell-based.
Test [3] has as its system HepG2. In words: Cytotoxicity against human HepG2 cells assessed as cell growth inhibition. The test is classed as functional, cell-based.
The subject of test [4] is A549. Description: Cytotoxicity against human A549 cells assessed as cell growth inhibition. It is filed as functional, cell-based.
In another test the test system is MDA-MB-231. In words: Cytotoxicity against human MDA-MB-231 cells assessed as cell growth inhibition. It is filed as functional, cell-based.
For test [5], the system named is MGC-803. Description: Cytotoxicity against human MGC-803 cells assessed as cell growth inhibition. It is filed as functional, cell-based.
The next test relates to HeLa. Description: Cytotoxicity against human HeLa cells assessed as cell growth inhibition. The test is classed as functional, cell-based.
The subject of test [6] is MGC-803. In words: Antitumor activity against human MGC-803 cells xenografted in mouse assessed as inhibition of tumor growth at 50 mg/kg, po administered relative to control. It is filed as functional. To be noted: read-out: TGI.
In another test the test system is MDA-MB-468. Description: Phototoxicity against human MDA-MB-468 cells assessed as cell growth inhibition incubated for 24 hrs followed by LED illumination by MTT assay. The following applies: MDA-MB-468, light or radiation study. It is filed as functional, cell-based.
Another test has as its system PC-3. Description: Cytotoxicity against human PC-3 cells assessed as cell growth inhibition measured after 72 hrs XTT assay. It is filed as functional, cell-based. To be noted: PC-3, 72 h.
In a further test the test system is PANC-1. Description: Cytotoxicity against human PANC-1 cells assessed as cell growth inhibition measured after 72 hrs XTT assay. It is filed as functional, cell-based. To be noted: PANC-1, 72 h.
Test [7] can be described thus: Phototoxicity against rat AY-27 cells assessed as cell growth inhibition incubated for 2 hrs followed by diode laser illumination in presence of HAL by MTT assay relative to control. It is filed as functional. Also noted: scale not given: the % may be the effect or the level left.

For the compound `COc1ccc(/C=C\c2cc(OC)c(OC)c(OC)c2)cc1OC(=O)N(C)CCOc1ccc(C(=C2CCC(C)CC2)c2ccc(O)cc2)cc1` (stereo not drawn), the IC50 with MCF7 came to 5.7 nM; on Estrogen receptor beta it was 115 nM; on Estrogen receptor it was 15 nM.
In the case of `CCc1c2c(nc3ccc(OC(=O)N4CCC(N5CCCCC5)CC4)cc13)-c1cc3c(c(=O)n1C2)COC(=O)[C@]3(O)CC` [IRINOTECAN], the IC50 with A549 [1] stood at 2000 nM; with HepG2 [2], 34100 nM.
On to `COc1ccc(/C=C\c2cc(OC)c(OC)c(OC)c2)cc1OC(=O)Cn1cc(F)c(=O)[nH]c1=O`, for which the IC50 in the test with HepG2 [3] was 22.8 nM; in the test with A549 [4] it was under 0.3 nM; in the test on MDA-MB-231, 400 nM; in the test with MGC-803 [5], under 0.3 nM; in the test with HeLa, 31 nM. Besides, the inhibition in vivo at 50 mg/kg with MGC-803 [6] was 75%.
As for `COc1ccc(/C=C\c2cc(OC)c(OC)c(OC)c2)cc1O` [COMBRETASTATIN A4], the IC50 turned out to be 35 nM with A549 [1]; 12.8 nM in the test on HepG2 [3]; 2390 nM with HepG2 [2]; 2.54 nM in the test with A549 [4]; 3.3 nM in the test with MDA-MB-231; 16 nM in the test with MDA-MB-468. In addition, the IC50 worked out at 20.6 nM in the test on MGC-803 [5] and 400 nM with HeLa.
Regarding `COc1ccc(/C=C\c2cc(OC)c(OC)c(OC)c2)cc1OC(=O)C1=CC(C)(C)N(O)C(C)(C)C1`, the IC50 in the test on A549 [1] was 150 nM; in the test with HepG2 [2], 3580 nM.
In the same order, the values of `COc1ccc(/C=C\c2cc(OC)c(OC)c(OC)c2)cc1OC(=O)C1CC(C)(C)N(O)C(C)(C)C1` are 170 nM and 11200 nM.
Consider `CC[C@H](C)[C@H](NC(=O)[C@@H](N)CC(C)C)C(=O)N[C@@H](Cc1ccc(O)cc1)C(=O)N1CCC[C@H]1C(=O)N[C@@H](CCCNC(=N)N)C(=O)N[C@@H](CCCNC(=N)N)C(=O)NCCCCCC(NC(=O)[C@@H](CCCNC(=N)N)NC(=O)[C@@H](CCCNC(=N)N)NC(=O)[C@@H]1CCCN1C(=O)[C@H](Cc1ccc(O)cc1)NC(=O)[C@@H](NC(=O)[C@@H](N)CC(C)C)[C@@H](C)CC)C(=O)NC(CCCCNC(=O)C(CCCCNC(=O)[C@H](CCCNC(=N)N)NC(=O)[C@H](CCCNC(=N)N)NC(=O)[C@@H]1CCCN1C(=O)[C@H](Cc1ccc(O)cc1)NC(=O)[C@@H](NC(=O)[C@@H](N)CC(C)C)[C@@H](C)CC)NC(=O)[C@H](CCCNC(=N)N)NC(=O)[C@H](CCCNC(=N)N)NC(=O)[C@@H]1CCCN1C(=O)[C@H](Cc1ccc(O)cc1)NC(=O)[C@@H](NC(=O)[C@@H](N)CC(C)C)[C@@H](C)CC)C(=O)NCCC(=O)NC(CCCCNC(=O)CCOCCOCCNC(=O)CCCCC(=O)Oc1cc(/C=C\c2cc(OC)c(OC)c(OC)c2)ccc1OC)C(N)=O` (stereo partly drawn), for which the values for the half-maximal inhibitory concentration (IC50) in the test with PC-3 and in the test with PANC-1 were 850 nM and 500 nM, respectively.
For `CCN(CC)c1ccc2c(-c3ccccc3C(=O)OCC3CCN(/C=C/C(=O)Oc4cc(/C=C\c5cc(OC)c(OC)c(OC)c5)ccc4OC)CC3)c3ccc(=[N+](CC)CC)cc-3oc2c1.[Cl-]`, in test [7], the Activity is listed as 100%.
Turning to `O=c1[nH]cc(F)c(=O)[nH]1` [FLUOROURACIL], the IC50 amounted to 34900 nM with A549 [4], 97000 nM with MDA-MB-231 and 113 nM with HeLa.
In the case of `COc1ccc(/C=C\c2cc(OC)c(OC)c(OC)c2)cc1OC(=O)C1CC(C)(C)N(O)C1(C)C` (stereo not drawn), the IC50 with A549 [1] amounted to 42 nM; in the test on HepG2 [2], 1830 nM.
The corresponding values for `COc1ccc(/C=C\c2cc(OC)c(OC)c(OC)c2)cc1OC(=O)C1=CC(C)(C)N(O)C1(C)C` are 160 nM and 3270 nM.
`COc1ccc(/C=C\c2cc(OC)c(OC)c(OC)c2)cc1OC(=O)CCn1cc(F)c(=O)[nH]c1=O`: the half-maximal inhibitory concentration (IC50) with HepG2 [3] was 7330 nM; with A549 [4] it was under 0.3 nM; in the test with MDA-MB-231 it was 80600 nM; in the test with MGC-803 [5], under 0.3 nM; in the test with HeLa, 30 nM.
